This passage reports relative viability results from the supplement of paper PMC10307832.

Assay in all cases: relative viability (nuclei count vs DMSO), 5 days (fraction); higher = more cells survive
Compound in test [1]: Cc1ccc2nc(NCCN)c3ncc(C)n3c2c1 + Cc1nc(Nc2ncc(C(=O)Nc3c(C)cccc3Cl)s2)cc(N2CCN(CCO)CC2)n1 [Dasatinib] (partner 0.075 µM)
The procedure, abridged:
(§1)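 One day after seeding in 1536-well plates, lung cancer cell lines were dosed by pin tool. Dosing was either single-drug or a fixed anchor-drug dose plus five library-drug doses (not always all listed) in √10 steps. After 5 days, nuclei were stained in one fix-and-stain step and counted on 4× images, and relative viability is the nuclei count of treated wells over that of vehicle wells, given as the median of duplicate plates.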

Compound in the test “Salubrinal + Bortezomib”: O=C(/C=C/c1ccccc1)NC(NC(=S)Nc1cccc2cccnc12)C(Cl)(Cl)Cl [Salubrinal] + CC(C)C[C@H](NC(=O)[C@H](Cc1ccccc1)NC(=O)c1cnccn1)B(O)O [Bortezomib] (partner 0.002 µM)
The procedure, abridged: as §1

Compound in the test “Salubrinal + Tozasertib”: O=C(/C=C/c1ccccc1)NC(NC(=S)Nc1cccc2cccnc12)C(Cl)(Cl)Cl [Salubrinal] + Cc1cc(Nc2cc(N3CCN(C)CC3)nc(Sc3ccc(NC(=O)C4CC4)cc3)n2)n[nH]1 [Tozasertib] (partner 0.1 µM)
Summed up: as §1

Compound in the test “Salubrinal + Pemetrexed”: O=C(/C=C/c1ccccc1)NC(NC(=S)Nc1cccc2cccnc12)C(Cl)(Cl)Cl [Salubrinal] + Nc1nc2[nH]cc(CCc3ccc(C(=O)N[C@@H](CCC(=O)O)C(=O)O)cc3)c2c(=O)[nH]1 [Pemetrexed] (partner 0.2 µM)
The procedure, abridged: as §1

On to NCI-H441, for which the relative viability in test [1] (first compound 0.04 µM) was found to be 0.556; in test [1] (first compound 0.1265 µM), 0.552; in test [1] (first compound 0.4 µM) it was 0.551; in test [1] (first compound 1.265 µM), 0.673; in test [1] (first compound 4 µM), 0.445; with Salubrinal + Bortezomib (first compound 0.08 µM), 0.392. In addition, the relative viability turned out to be 0.516 with Salubrinal + Bortezomib (first compound 0.253 µM); 0.386 with Salubrinal + Bortezomib (first compound 0.8 µM); 0.372 in the test with Salubrinal + Bortezomib (first compound 2.53 µM); 0.362 with Salubrinal + Bortezomib (first compound 8 µM); 0.554 in the test with Salubrinal + Tozasertib (first compound 0.08 µM); 0.431 with Salubrinal + Tozasertib (first compound 0.253 µM). The relative viability with Salubrinal + Tozasertib (first compound 0.8 µM) turned out to be 0.74; in the test with Salubrinal + Tozasertib (first compound 2.53 µM) it was 0.576; with Salubrinal + Tozasertib (first compound 8 µM) it was 0.448; with Salubrinal + Pemetrexed (first compound 0.08 µM) it was 0.271; with Salubrinal + Pemetrexed (first compound 0.253 µM), 0.274; with Salubrinal + Pemetrexed (first compound 0.8 µM) it was 0.274. Besides, the values for the relative viability with Salubrinal + Pemetrexed (first compound 2.53 µM) and in the test with Salubrinal + Pemetrexed (first compound 8 µM) were 0.275 and 0.255, respectively.
Turning to NCI-H460, the relative viability in test [1] (first compound 0.04 µM) worked out at 0.448; in test [1] (first compound 0.1265 µM) it was 0.546; in test [1] (first compound 0.4 µM), 0.613; in test [1] (first compound 1.265 µM), 0.499; in test [1] (first compound 4 µM), 0.468; with Salubrinal + Bortezomib (first compound 0.08 µM), 1.66. In addition, the relative viability with Salubrinal + Bortezomib (first compound 0.253 µM) turned out to be 0.452; in the test with Salubrinal + Bortezomib (first compound 0.8 µM) it was 1.4; with Salubrinal + Bortezomib (first compound 2.53 µM), 1.08; with Salubrinal + Bortezomib (first compound 8 µM), 1.21; with Salubrinal + Tozasertib (first compound 0.08 µM), 0.393; with Salubrinal + Tozasertib (first compound 0.253 µM) it was 0.268. For the same cell line, the relative viability in the test with Salubrinal + Tozasertib (first compound 0.8 µM) was determined as 0.484; with Salubrinal + Tozasertib (first compound 2.53 µM), 0.253; with Salubrinal + Tozasertib (first compound 8 µM) it was 0.102; with Salubrinal + Pemetrexed (first compound 0.08 µM), 0.0573; with Salubrinal + Pemetrexed (first compound 0.253 µM) it was 0.0837; with Salubrinal + Pemetrexed (first compound 0.8 µM), 0.0626. The relative viability with Salubrinal + Pemetrexed (first compound 2.53 µM) was found to be 0.0636; with Salubrinal + Pemetrexed (first compound 8 µM), 0.0643.
As for NCI-H520, the relative viability is 0.363 in test [1] (first compound 0.04 µM); 0.208 in test [1] (first compound 0.1265 µM); 0.229 in test [1] (first compound 0.4 µM); 0.284 in test [1] (first compound 1.265 µM); 0.262 in test [1] (first compound 4 µM); 0.881 with Salubrinal + Bortezomib (first compound 0.08 µM). Further, the relative viability with Salubrinal + Bortezomib (first compound 0.253 µM) was 0.439; with Salubrinal + Bortezomib (first compound 0.8 µM), 0.793; in the test with Salubrinal + Bortezomib (first compound 2.53 µM), 0.633; with Salubrinal + Bortezomib (first compound 8 µM) it was 0.435; with Salubrinal + Tozasertib (first compound 0.08 µM), 0.501; in the test with Salubrinal + Tozasertib (first compound 0.253 µM), 0.446. The relative viability turned out to be 0.44 in the test with Salubrinal + Tozasertib (first compound 0.8 µM); 0.403 with Salubrinal + Tozasertib (first compound 2.53 µM); 0.469 with Salubrinal + Tozasertib (first compound 8 µM); 0.762 in the test with Salubrinal + Pemetrexed (first compound 0.08 µM); 0.523 with Salubrinal + Pemetrexed (first compound 0.253 µM); 0.777 with Salubrinal + Pemetrexed (first compound 0.8 µM). Moreover, the relative viability is 0.716 with Salubrinal + Pemetrexed (first compound 2.53 µM) and 0.734 in the test with Salubrinal + Pemetrexed (first compound 8 µM).
For NCI-H596, the relative viability came to 0.677 in test [1] (first compound 0.04 µM); 0.645 in test [1] (first compound 0.1265 µM); 0.524 in test [1] (first compound 0.4 µM); 0.524 in test [1] (first compound 1.265 µM); 0.648 in test [1] (first compound 4 µM); 1.1 with Salubrinal + Bortezomib (first compound 0.08 µM). Further, the relative viability with Salubrinal + Bortezomib (first compound 0.253 µM) came out at 0.807; with Salubrinal + Bortezomib (first compound 0.8 µM), 1.01; with Salubrinal + Bortezomib (first compound 2.53 µM) it was 1.13; with Salubrinal + Bortezomib (first compound 8 µM), 1; with Salubrinal + Tozasertib (first compound 0.08 µM) it was 0.968; in the test with Salubrinal + Tozasertib (first compound 0.253 µM), 1.1. Moreover, the relative viability is 0.897 with Salubrinal + Tozasertib (first compound 0.8 µM); 0.909 with Salubrinal + Tozasertib (first compound 2.53 µM); 0.806 with Salubrinal + Tozasertib (first compound 8 µM); 0.493 with Salubrinal + Pemetrexed (first compound 0.08 µM); 0.518 with Salubrinal + Pemetrexed (first compound 0.253 µM); 0.56 with Salubrinal + Pemetrexed (first compound 0.8 µM). Besides, the figures for the relative viability with Salubrinal + Pemetrexed (first compound 2.53 µM) and in the test with Salubrinal + Pemetrexed (first compound 8 µM) were 0.509 and 0.466, respectively.
For the cell line NCI-H647, the relative viability in test [1] (first compound 0.04 µM) was 0.172; in test [1] (first compound 0.1265 µM), 0.191; in test [1] (first compound 0.4 µM), 0.163; in test [1] (first compound 1.265 µM) it was 0.169; in test [1] (first compound 4 µM), 0.141; with Salubrinal + Bortezomib (first compound 0.08 µM) it was 1.05. Further, the relative viability with Salubrinal + Bortezomib (first compound 0.253 µM) was found to be 1.37; with Salubrinal + Bortezomib (first compound 0.8 µM), 1.2; with Salubrinal + Bortezomib (first compound 2.53 µM), 1.06; with Salubrinal + Bortezomib (first compound 8 µM), 0.792; with Salubrinal + Tozasertib (first compound 0.08 µM), 0.418; in the test with Salubrinal + Tozasertib (first compound 0.253 µM) it was 0.287. Also, the relative viability was 0.319 with Salubrinal + Tozasertib (first compound 0.8 µM); 0.288 in the test with Salubrinal + Tozasertib (first compound 2.53 µM); 0.009 with Salubrinal + Tozasertib (first compound 8 µM); 0.199 with Salubrinal + Pemetrexed (first compound 0.08 µM); 0.174 with Salubrinal + Pemetrexed (first compound 0.253 µM); 0.184 with Salubrinal + Pemetrexed (first compound 0.8 µM). Further, the relative viability in the test with Salubrinal + Pemetrexed (first compound 2.53 µM) came to 0.196; with Salubrinal + Pemetrexed (first compound 8 µM), 0.147.
For the cell line NCI-H650, the relative viability in test [1] (first compound 0.04 µM) was determined as 0.49; in test [1] (first compound 0.1265 µM), 0.449; in test [1] (first compound 0.4 µM), 0.464; in test [1] (first compound 1.265 µM), 0.431; in test [1] (first compound 4 µM) it was 0.448; with Salubrinal + Bortezomib (first compound 0.08 µM), 0.877. For the same cell line, the relative viability in the test with Salubrinal + Bortezomib (first compound 0.253 µM) amounted to 0.724; in the test with Salubrinal + Bortezomib (first compound 0.8 µM), 1.23; with Salubrinal + Bortezomib (first compound 2.53 µM) it was 0.997; with Salubrinal + Bortezomib (first compound 8 µM) it was 0.817; in the test with Salubrinal + Tozasertib (first compound 0.08 µM), 0.81; in the test with Salubrinal + Tozasertib (first compound 0.253 µM), 0.768. Further, the relative viability was found to be 0.798 in the test with Salubrinal + Tozasertib (first compound 0.8 µM); 0.687 with Salubrinal + Tozasertib (first compound 2.53 µM); 0.704 with Salubrinal + Tozasertib (first compound 8 µM); 1.03 in the test with Salubrinal + Pemetrexed (first compound 0.08 µM); 1.14 with Salubrinal + Pemetrexed (first compound 0.253 µM); 1.05 in the test with Salubrinal + Pemetrexed (first compound 0.8 µM). Besides, the relative viability with Salubrinal + Pemetrexed (first compound 2.53 µM) was 1.05; with Salubrinal + Pemetrexed (first compound 8 µM) it was 0.895.
As to NCI-H661, the relative viability in test [1] (first compound 0.04 µM) was found to be 0.927; in test [1] (first compound 0.1265 µM), 0.943; in test [1] (first compound 0.4 µM), 0.88; in test [1] (first compound 1.265 µM), 0.835; in test [1] (first compound 4 µM), 0.748; with Salubrinal + Bortezomib (first compound 0.08 µM), 0.876. Besides, the relative viability in the test with Salubrinal + Bortezomib (first compound 0.253 µM) came to 0.781; with Salubrinal + Bortezomib (first compound 0.8 µM), 0.714; with Salubrinal + Bortezomib (first compound 2.53 µM), 0.821; with Salubrinal + Bortezomib (first compound 8 µM) it was 0.865; with Salubrinal + Tozasertib (first compound 0.08 µM), 0.367; with Salubrinal + Tozasertib (first compound 0.253 µM), 0.36. The relative viability with Salubrinal + Tozasertib (first compound 0.8 µM) is 0.373; with Salubrinal + Tozasertib (first compound 2.53 µM) it was 0.356; with Salubrinal + Tozasertib (first compound 8 µM), 0.37; with Salubrinal + Pemetrexed (first compound 0.08 µM), 0.942; with Salubrinal + Pemetrexed (first compound 0.253 µM), 0.808; in the test with Salubrinal + Pemetrexed (first compound 0.8 µM) it was 0.936. The results for the relative viability in the test with Salubrinal + Pemetrexed (first compound 2.53 µM) and in the test with Salubrinal + Pemetrexed (first compound 8 µM) were 0.89 and 0.91, respectively.
